Assays:
[1] = system: Farnesyl pyrophosphate synthase (Geobacillus stearothermophilus); test: Percent inhibition against prenyltransferases of farnesyl diphosphate synthase (FPS) at concentration of 50 uM
[2] = Activity at concentration of 250 uM relative to HexPS for 5 min; assay type: functional
Micrococcus luteus [3] = test: Percent inhibition against prenyltransferases of hexaprenyl diphosphate synthase (Hex PS) at concentration of 125 uM
[4] = Activity at concentration of 714 uM relative to FPS for 30 min; assay type: functional
[5] = Activity as substrate for FPS relative to control; assay type: functional
[6] = system: Geobacillus stearothermophilus; test: Percent inhibition against prenyltransferases of Undecaprenyl pyrophosphate synthetase (UPS) at concentration of 32 uM
[7] = Activity at concentration of 250 uM relative to HexPS for 15 min; assay type: functional
[8] = Activity at concentration of 357 uM relative to FPS for 120 min; assay type: functional
[9] = system: Farnesyl pyrophosphate synthase (Geobacillus stearothermophilus); test: Percent inhibition against prenyltransferases of farnesyl diphosphate synthase (FPS) at concentration of 125 uM
[10] = Activity at concentration of 357 uM relative to FPS for 30 min; assay type: functional
[11] = system: Farnesyl pyrophosphate synthase (Geobacillus stearothermophilus); test: Percent inhibition against prenyltransferases of farnesyl diphosphate synthase (FPS) at concentration of 250 uM
[12] = Activity at concentration of 125 uM relative to HexPS for 5 min; assay type: functional
Micrococcus luteus [13] = test: Percent inhibition against prenyltransferases of hexaprenyl diphosphate synthase (Hex PS) at concentration of 250 uM
[14] = Activity as substrate for Hex PS relative to control; assay type: functional
[15] = Activity at concentration of 1428 uM relative to FPS for 30 min; assay type: functional
[16] = Activity as substrate for UPS relative to control; assay type: functional
[17] = Activity at concentration of 125 uM relative to HexPS for 15 min; assay type: functional
[18] = system: Geobacillus stearothermophilus; test: Percent inhibition against prenyltransferases of Undecaprenyl pyrophosphate synthetase (UPS) at concentration of 16 uM
[19] = Activity at concentration of 357 uM relative to FPS for 60 min; assay type: functional
Micrococcus luteus [20] = test: Percent inhibition against prenyltransferases of hexaprenyl diphosphate synthase (Hex PS) at concentration of 50 uM
[21] = system: Geobacillus stearothermophilus; test: Percent inhibition against prenyltransferases of Undecaprenyl pyrophosphate synthetase (UPS) at concentration of 125 uM
[22] = system: Farnesyl pyrophosphate synthase (Geobacillus stearothermophilus); test: Percent inhibition against farnesyl diphosphate synthase (FPS) at concentration of 250 uM

Row | inhibition [1] | inhibition (Micrococcus luteus [3]) | inhibition [6] | inhibition [9] | inhibition [11] | inhibition (Micrococcus luteus [13]) | inhibition [18] | inhibition (Micrococcus luteus [20]) | inhibition [21] | Compound | Relative activity [2] | Relative activity [4] | Relative activity [5] | Relative activity [7] | Relative activity [8] | Relative activity [10] | Relative activity [12] | Relative activity [14] | Relative activity [15] | Relative activity [16] | Relative activity [17] | also measured
1 | 86% | 37% | 58% | 94.9% | 96.1% | 80.5% | 38% | 9.2% | 63% | C/C(=C\COP(=O)(O)OP(=O)(O)O)CC/C=C(\C)COc1cccc(C(=O)c2ccccc2)c1 | 5.5 | 61.2 | 1.83 | 1.9 | 37 | 62.2 | 32.5 | 21.6 | 75.9 | 55.7 | 10.8 | Relative activity [19]: 66.6
2 | – | 23.4% | 17.5% | 24.5% | 27.6% | 37% | 12.5% | 8.8% | 57% | C/C(=C\COP(=O)(O)OP(=O)(O)O)COc1ccc(C(=O)c2ccccc2)cc1 | – | – | 0.06 | – | – | – | – | 5.7 | – | – | – | –
3 | – | 3.5% | 22.5% | 14.6% | – | 10.6% | 12.5% | 3.1% | 68% | C/C(=C\COP(=O)(O)OP(=O)(O)O)COc1cccc(C(=O)c2ccccc2)c1 | – | – | 0.22 | – | – | – | – | 0 | – | – | – | inhibition [22]: 19.8%
4 | 84.4% | 49.5% | 53% | 94.4% | 95.5% | 86.4% | 29% | 14.4% | 63% | C/C(=C\COP(=O)(O)OP(=O)(O)O)CC/C=C(\C)COc1ccc(C(=O)c2ccccc2)cc1 | 9.8 | 64.4 | 0.78 | 4.3 | 17 | 67.3 | 30.7 | 46.4 | 36.2 | 49.1 | 9.2 | Relative activity [19]: 48.1

— ChEMBL document CHEMBL1130495, “Benzoylphenoxy analogs of isoprenoid diphosphates as photoactivatable substrates for bacterial prenyltransferases” (Bioorg Med Chem Lett, 1997)
